{
  "source": "paper PMC9122897",
  "about": "“SHR1032, a novel STING agonist, stimulates anti-tumor immunity and directly induces AML apoptosis” (Scientific Reports, 2022)",
  "key": {"[1]": {"system": "mouse RAW164.7 macrophage cells", "assay": "IFNβ ELISA", "format": "cell-based", "details": "5 h, vs ADU-S100", "method": "(§1) Figure 2 SHR1032 specifically and potently activates STING signaling pathway. IRF luciferase reporter assays in (a) THP1-STING-R232, THP1-STING-H232, THP1-STING-HAQ, and THP1-STING-KO cells. Cells were stimulated for 24 h with the indicated STING compounds and assessed for luciferase activity. IFNβ production and activation of cGAS-STING signaling pathway in (b) human THP1-STING-R232, human PBMCs from a donor homozygous for the R232 variant, cynomolgus PBMC, and mouse RAW164.7 macrophage cells were treated with STING agonists for 5 h. IFNβ in media was quantified by human or mouse ELISA kits respectively. (c) THP1-STING-R232 cells and mouse RAW164.7 macrophage cells were stimulated with 40 µM of ADU-S100 or 10 µM of SHR1032 for the indicated time points. The amount of pTBK1, total TBK1, STING and α-tubulin was measured by western blotting.\n(§2) Human and Cynomolgous PBMC’s were thawed and spun down in Lymphocyte media (ZENBIO) and resuspended in media to 1.5 x 10^6 cells/ml density. […] Human and monkey IFN-β protein concentration was measured using human IFN-β Quantikine ELISA Kits (R&D Systems) per manufacture’s protocol. Mouse IFN-β was measured using mouse IFN-β Quantikine ELISA Kits (R&D Systems) per manufacture’s protocol. Mouse TNFα, IFN-β and IL-6 in the tumor lysates and plasma was measured by Quantikine ELISA Kits (R&D Systems) per manufacture’s protocol."}, "human PBMCs": {"system": "human PBMCs", "assay": "IFNβ ELISA", "format": "cell-based", "details": "5 h, vs ADU-S100", "method": "as §1, §2"}, "cynomolgus PBMC": {"system": "cynomolgus PBMC", "assay": "IFNβ ELISA", "format": "cell-based, cynomolgus monkey", "details": "5 h, vs ADU-S100", "method": "as §1, §2"}, "[2]": {"system": "mouse RAW164.7 macrophage cells", "assay": "Western blot of TBK1 phosphorylation", "format": "cell-based", "details": "10 µM SHR1032 vs 40 µM ADU-S100", "method": "as §1\nTHP1 reporter cells were treated for 24 h with a total of 100 k cells and 150 ul media in each well a 96-well plate. […] Luminescence signal was measured using Tecan infinite M1000. EC50 values were calculated using non-linear regression analysis of GraphPad Prism. Cell growth was monitored by CellTiter-Glo Luminescent Cell Viability Assay (Promega) per manufacture’s protocol. GI50 values were calculated using non-linear regression analysis of GraphPad Prism. […]"}, "THP1-STING-R232 cells": {"system": "THP1-STING-R232 cells", "assay": "CellTiter-Glo cell growth", "format": "cell-based, human", "details": "Homo sapiens", "method": "(§3) (a–d) AML cells were treated with STING agonists and standard of care cytarabine, and cell viability was measured by CellTiter Glo in (a) THP1-STING-R232, (b) THP1-STING-KO, (c) MV-4-11 and (d) MOLM-16. (e) MV-4-11, MOLM-16 and THP1-STING-KO cells were stimulated with 1 µM of SHR1032 for the indicated time points. The amount of pTBK1, total TBK1, pSTING, total STING and α-tubulin was measured by Western blot. pSTING phosphorylated STING. THP1 reporter cells were treated for 24 h with a total of 100 k cells and 150 ul media in each well a 96-well plate. Following the incubation, 20 µl of supernatant was transferred to an opaque 96 well ½ area plate and incubated for 30 s with 50 µl of QUANTI-Luc substrate (InvivoGen) per manufacturer’s instructions. Luminescence signal was measured using Tecan infinite M1000. EC50 values were calculated using non-linear regression analysis of GraphPad Prism. Cell growth was monitored by CellTiter-Glo Luminescent Cell Viability Assay (Promega) per manufacture’s protocol. GI50 values were calculated using non-linear regression analysis of GraphPad Prism. Cell lysates for western blotting were made in RIPA buffer (Sigma) with Halt Protease and Phosphatase Inhibitors (Thermo Scientific). Antibodies against pSTING, TBK1, pTBK1 and tubulin were purchased from Cell Signaling Technologies, and anti-STING was purchased from Protein Tech."}, "THP1-STING-KO cells": {"system": "THP1-STING-KO cells", "assay": "CellTiter-Glo cell growth", "format": "cell-based, human", "method": "as §3"}, "MV4-11 cells": {"system": "MV4-11 cells", "assay": "RNA-seq differentially expressed genes", "format": "cell-based, human", "details": "MV4-11, 1 µM, 4 h", "method": "(§4) Figure 5 Cell apoptosis induced by SHR1032 in AML cell lines is independent of type I interferon. (a–d) RNA-Seq analysis of THP1-STING-R232, THP1-STING-KO and MV4-11 AML cells treated with 1 µM of SHR1032 for 4 h. […] (d) ANNEXIN V staining analysis with flow cytometry in MV4-11, MOLM-16, THP1-STING-WT and THP1-STING-KO cells. (e) Cell viability analysis by CellTiter Glo in THP1-IRFAR2-WT or -KO cells.\n(§5) RNA was extracted from cells using RNeasy Plus Mini Kit (Qiagen). Library preparation with NEBNext Ultra II with PolyA selection, sequencing with NovaSeq and data analysis was performed by Admera Health, New Jersey. The De-Seq2 (version 1.14.1) was used to do the differential analysis. Gene expression levels were quantified as Fragments Per Kilobase Million (FPKM). Gene expression with FPKM value ≥ 0.5 were selected and Log2-transformed for the Differential Gene Expression (DEGs) analysis using iDEP (http://bioinformatics.sdstate.edu/idep/). DEGs were defined by p < 0.05 within each indicated paired-comparison and then used for Gene Ontology Analysis and heatmap generation. The Gene Ontology Analysis was done using Enrichr. The heatmap was created using R package gplots (version 3.1.1), function heatmap.2."}, "THP1-STING-WT cells": {"system": "THP1-STING-WT cells", "assay": "RNA-seq differentially expressed genes", "format": "cell-based, human", "details": "1 µM, 4 h", "method": "as §4, §5"}},
  "data": [
    {"compound": "CCn1nc(C)cc1C(=O)Nc1nc2cc(C(N)=O)cc(OC)c2n1CCC[C@H]1COc2cc(C(N)=O)cc3nc(NC(=O)c4cc(C)nn4CC)n1c23", "note": "[SHR1032]", "values": [
      {"measurement": "mouse IFNβ production", "setting": "[1]", "result": "lower than that with that of ADU-S100, but still detectable"},
      {"measurement": "human IFNβ production", "setting": "human PBMCs", "result": "much greater amount of human IFNβ than ADU-S100"},
      {"measurement": "monkey IFNβ production", "setting": "cynomolgus PBMC", "result": "lower than that with that of ADU-S100, but still detectable"},
      {"measurement": "TBK1 phosphorylation", "setting": "[2]", "result": "lower"},
      {"measurement": "GI50", "setting": "THP1-STING-R232 cells", "result": 23, "unit": "nM"},
      {"measurement": "cell growth inhibition", "setting": "THP1-STING-KO cells", "result": "not detectable"},
      {"measurement": "Genes differentially expressed: Down-expressed", "setting": "MV4-11 cells", "result": 216},
      {"measurement": "Genes differentially expressed: Up-expressed", "setting": "MV4-11 cells", "result": 324},
      {"measurement": "Genes differentially expressed: Down-expressed", "setting": "THP1-STING-WT cells", "result": 73},
      {"measurement": "Genes differentially expressed: Up-expressed", "setting": "THP1-STING-WT cells", "result": 224}
    ]}
  ]
}
